How the values were obtained:
HEK293 cells [1] = assay: HEK293 attachment and growth, culture confluence by IncuCyte Plus (Examples 20, 21); type: cell-based, human
Protocol: HEK293 cells were maintained in EMEM (Lonza) containing 10% FBS (Lonza). Cells were passaged at 70-80% confluence using Trypsin/EDTA for dissociation, and seeded at c 2.0×10^4 cells/cm^2 in 75-cm^2 flasks with Nunclon Delta™ surface (Thermo Fisher Scientific, Roskilde, Denmark).
EMEM (500 μl) supplemented with 10% FBS containing 1.0, 5.0, 10, 15 or 20 μM Y-27632 (Sigma Chemical Co.), or 0.4, 1.2, 1.6, 2.4 or 2.8 μM H-1152 (Calbiochem, EMD Chemicals Inc., Darmstadt, Germany) was dispensed in Multidish 24-well plates with either Surface 4 or a non-treated (but gamma irradiated; 25 kGy) polystyrene surface. Another 500 μl of EMEM supplemented with 10% FBS and containing HEK293 cells were added to the wells (2.0×10^4 cells/cm^2). The cultures were placed in an IncuCyte™ Plus (Essen Instruments, Michigan, USA) and incubated at 37° C. in a humidified atmosphere of 5% CO2 in air. The IncuCyte™ Plus is an automated imaging platform, configured to fit inside a CO2 incubator, and designed to provide kinetic, non-invasive live cell imaging by acquiring phase contrast images of the cells at user-defined times and locations within the cultures. The primary metric of the instrument is culture confluence, that is, the fraction of the surface that is covered by cells. The HEK293 cells were incubated for 72 hours without manipulations, and images were collected every two hours at 9 positions in triplicate cultures. Culture confluence was determined using the IncuCyte™ Plus software (v. 3.4.1.25966).
EMEM (1.0 ml) supplemented with 10% FBS containing 0.4, 0.8, 1.2, 1.6, 2.0, 2.4 or 2.8 μM H-1152 was dispensed in Multidish 12-well plates with Surface 4. Another 1.0 ml of EMEM supplemented with […] and containing HEK293 cells were added to the wells (4.0×10^4 cells/cm^2). The cultures were placed in an IncuCyte™ Plus, and incubated at 37° C. in a humidified atmosphere of 5% CO2 in air for 42 hours (images were collected every 6 hours). One ml of culture medium was then removed by pipetting, and 1.0 ml EMEM supplemented with 10% FBS containing 0.2, 0.4, 0.6, 0.8, 1.0, 1.2 and 1.4 μM H-1152 was added. The cultures were placed in the IncuCyte™ Plus again, and images were collected every hour over the following 25 hours. Images were collected at 9 positions in triplicate cultures, and culture confluence was determined using the IncuCyte™ Plus software. Images from the IncuCyte™ Plus collected at specific positions in HEK293 cell cultures grown in the absence or presence of H-1152 (0.6 μM) was retrieved and presented as phase-contrast micrographs for the comparison of HEK293 culture morphology at the following time points: start of incubation (0 hours), just before medium change (42 hours), 1 hour after the medium change (43 hours), and, finally, after 52 hours of incubation.

HEK293 cells [2] = assay: HEK293 cell attachment, number of viable cells by LDH activity (Example 19); type: cell-based, human; conditions: Surface 4 and CellBIND surface, 2.0 and 5.0 μM
From the text: Human embryonic kidney cells 293 (HEK293, ECACC no. 85120602) were maintained in Eagle's Minimum Essential Medium (EMEM; Lonza, Verviers, Belgium) containing 10% fetal bovine serum (FBS; Lonza). The cells were adapted to Pro293a-CDM medium (Lonza), a chemically defined, serum-free medium optimized for cultivation of adherent HEK293, by gradually and over several passages using the sequential ratios of 3:1, 1:1, 1:3, 1:7, and finally 0:1 of serum-supplemented EMEM and Pro293a-CDM medium. For maintenance and adaptation, HEK293 cells were seeded at 2.0×10^4 cells/cm^2 in 75-cm^2 flasks with Nunclon Delta™ surface (Thermo Fisher Scientific, Roskilde, Denmark) and passaged at 70-80%/confluence using Trypsin/EDTA for dissociation.
Another 100 μl of Pro293a-CDM medium with HEK293 cells was added to the wells (4.0×10^4 cells/cm^2). […]
The number of viable cells in the wells was then determined using a lactate dehydrogenase (LDH) activity kit from Roche, Switzerland. […] The reaction was stopped by adding 50 μl of 1.0 M HCl, and the absorbance at 490 nm was measured in a microplate reader (Genios Pro; Tecan, Austria). The number of cells was calculated using the A490 values from these samples and from standards containing LDH from a known number of cells. […]

H9 human ES cells = assay: H9 human ES cell attachment to surface Nunc4 in defined media mTeSR (Example 14); type: cell-based; conditions: 20 micromolar Y-27632
Protocol: Passage 49 H9 human ES cells were passaged twice in the define media, mTeSR™, on Matrigel™-treated plasticware. The cells were then LIBERASE treated and plated onto the surface modified plate Nunc4 in mTeSR™ media. Cells were either plated in media with or without 20 micromolar Y-27632. Wells were also treated with various proteins for 30 minutes prior to seeding cells (no treatment, 0.1% gelatin, 2% BSA, 0.34 mg/ml rat Collagen I, 1:1000 Matrigel™, or 1:5000 Matrigel™) to determine if these proteins could promote human ES cell adhesion in defined media with or without Y-27632 (FIG. 28). […] However, when 20 micromolar Y-27632 was added to define mTeSR™ media, human ES cells adhered to surface Nunc4. Furthermore, this adherence was equivalent in untreated wells and wells treated with 0.1% gelatin, 2% BSA, and 0.34 mg/ml rat Collagen I. There was a modest increase in human ES cell attachment in wells with low concentrations of Matrigel™ (1:1000 and 1:5000 dilutions), however these concentrations of Matrigel™ were insufficient to promote adhesion in the absence of Y-27632.

With `C[C@@H](N)[C@H]1CC[C@H](C(=O)Nc2ccncc2)CC1` [Surface Y-27632, Y-27632] the “attachment and growth of HEK293 cells” value (HEK293 cells [1]; Surface 4, increasing concentration) was “enhances attachment and growth”, the “growth and attachment of HEK293 cells” value (HEK293 cells [1]; non-treated polystyrene surface, 10 μM Y-27632, 0.6-1.2 μM H-1152) was “slightly enhanced” and the “attachment of HEK293 cells” value (HEK293 cells [2]; EMEM with 10% FBS) was “enhanced attachment”. For the same compound, the “attachment of HEK293 cells” value (HEK293 cells [2]; Pro293a-CDM medium) was “enhanced attachment” and the “adherence of human ES cells in defined mTeSR media” value (H9 human ES cells) was “adhered”.
